{"source": "patent US20200095280A1", "about": "“Methods of using GM6 in diagnosing and treating Alzheimers disease” (Genervon Biopharmaceuticals LLC, priority 2016, published 2020)", "assay": "Blood brain barrier transit: ELISA of brain homogenate after IV injection", "type": "in vivo, C57BL6 mice", "conditions": "single bolus IV 0.2 and 2.0 mg/kg, four hours; vs control P=0.0001", "experimental": "The ability to transit to the brain was tested. C57BL6 mice were injected with a single bolus IV tail vein injection of GM6 at 0.2 and 2.0 mg/kg. At four hours, the animals were sacrificed, and half of the brain was frozen for ELISA analysis.", "note": "Where no end group is shown, it is not given here.", "data": [{"substance": "FSRYAR [GM6, FSRYAR]", "values": [{"measurement": "GM6 in brain homogenate supernatant (ELISA)", "result": "detected GM6 at statistically significant levels"}]}]}
